Data as given in ChEMBL document CHEMBL1140603, “Simple criterion for selection of flavonoid compounds with anti-HIV activity” (Bioorg Med Chem Lett, 2007).

Test system: Human immunodeficiency virus 1
Experiment: Inhibition of HIV1 replication
Type: functional, organism-based

Row | EC50 [µM] | SMILES
1 | ≥ 100 | COc1ccc(-c2cc(=O)c3c(OC)c(OC)ccc3o2)cc1OC
2 | ≥ 100 | COc1ccc(-c2oc3cc(O)ccc3c(=O)c2OC)cc1
3 | ≥ 100 | COc1ccc(-c2cc(=O)c3c(O)cc(O)cc3o2)cc1 [ACACETIN]
4 | ≥ 100 | O=c1cc(-c2ccc(O)cc2)oc2cc(O)cc(O)c12 [APIGENIN]
5 | < 100 | COc1c(O)cc2oc(-c3ccc(O)c(O)c3)cc(=O)c2c1O [EUPAFOLIN]
6 | ≥ 100 | COc1cc(O)c2c(=O)cc(-c3ccc(O)cc3)oc2c1 [GENKWANIN]
7 | ≥ 100 | COc1ccc(-c2cc(=O)c3c(OC)c(OC)c(OC)cc3o2)cc1OC [SINENSETIN]
8 | ≥ 100 | COc1ccc(-c2cc(=O)c3c(OC)c(OC)c(OC)c(OC)c3o2)cc1 [TANGERETIN]

Continued, compound first:

Row | SMILES | EC50 [µM]
9 | O=c1cc(-c2ccc(O)c(O)c2)oc2ccccc12 | ≥ 100
10 | COc1ccc(-c2cc(=O)c3c(OC)c(OC)c(OC)cc3o2)cc1 | ≥ 100
11 | O=c1cc(-c2ccccc2)oc2cc(O)ccc12 [7-HYDROXYFLAVONE] | ≥ 100
12 | O=c1cc(-c2ccccc2)oc2cc(O)cc(O)c12 [CHRYSIN] | ≥ 100
13 | O=c1c(O)c(-c2ccc(O)c(O)c2)oc2cc(O)ccc12 [FISETIN] | < 100
14 | O=c1c(O)c(-c2ccc(O)cc2)oc2cc(O)cc(O)c12 [KAEMPFEROL] | < 100
15 | O=c1c(O)c(-c2ccc(O)cc2O)oc2cc(O)cc(O)c12 [MORIN] | < 100
16 | O=c1c(O)c(-c2cc(O)c(O)c(O)c2)oc2cc(O)cc(O)c12 [MYRICETIN] | < 100
17 | O=c1c(O)c(-c2ccc(O)c(O)c2)oc2cc(O)c(O)c(O)c12 [QUERCETAGETIN] | < 100
18 | O=c1c(O)c(-c2ccc(O)c(O)c2)oc2cc(O)cc(O)c12 [QUERCETIN] | < 100
19 | COc1cc(O)c2c(=O)c(O)c(-c3ccc(O)c(O)c3)oc2c1 [RHAMNETIN] | < 100
20 | O=c1c(O)c(-c2cc(O)c(O)c(O)c2)oc2cc(O)ccc12 [ROBINETIN] | < 100
